Holding throughout (experiment): inhibition of tumour cell growth, NCI panel, 48 h
The test system of experiment [1] is HCC-2998 colon.
For experiment [2], the system named is MDA-MB-231 breast.
In experiment [3] the test system is IGROV1 ovarian.
In experiment [4] the test system is OVCAR-3 ovarian.
Experiment [5] has as its system OVCAR-5 ovarian.
The subject of experiment [6] is SF-539 CNS.
The subject of experiment [7] is NCI/ADR-RES ovarian.
For experiment [8], the system named is HL-60(TB) leukemia.
In experiment [9] the test system is EKVX NSCLC.
Experiment [10] deals with SK-MEL-2 melanoma.

Here are results for 7 compounds from PubChem BioAssay (NCI).

Values joined by “and” are separate entries in the source; they are usually repeats but may differ in a detail not shown here. Identical values can stand only once.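 A five-concentration, 48-hour dose response in 96-well plates underlies each endpoint, interpolated linearly between surrounding concentrations. The concentration for 50% growth inhibition is given as GI50. The concentration for full growth arrest is given as TGI.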 A value given as a limit tells only on which side of the number the result lay.

Regarding `Cc1cc(S(=O)(=O)Nc2nc3ccsc3c(=O)n2Cc2ccccc2)c(S)cc1Cl`, the GI50 in experiment [1] is 24000 nM; in experiment [2] it was 30300 nM; in experiment [3] it was 43.1 µM; in experiment [4], 24.3 µM; in experiment [5] it was 32.9 µM; in [6], 28.1 µM. For the same compound, the values for the GI50 in [7], in experiment [8] and in experiment [9] were 67.8 µM, over 100000 nM and 21.8 µM, respectively. The TGI is 43.7 µM in [1]; 72.5 µM in experiment [2]; over 100 µM in experiment [3]; 53 µM in experiment [4]; 97.5 µM in experiment [5]; 70.3 µM in [6]. In addition, the TGI is over 100 µM in [7], over 100 µM in experiment [8] and 77.3 µM in [9].

For `COc1ccc(Cn2cc3c(c2-c2ccccc2)CCc2cncnc2-3)cc1`, the GI50 is 11900 nM in experiment [1]; 5120 nM in [2]; 5.8 µM in experiment [3]; 3.65 µM in experiment [4]; 18.4 µM in experiment [5]; 6 µM in [6]. The GI50 is 3.99 µM in experiment [7], 2040 nM in experiment [8] and 4.5 µM in experiment [9]. The TGI in [1] is 25.5 µM; in experiment [2], 18.3 µM; in experiment [3] it was 23.9 µM; in experiment [4], 12.5 µM; in [5], 37.7 µM; in [6], 18.7 µM. Besides, the TGI came out at 19.8 µM in [7], 5.7 µM in experiment [8] and 29.3 µM in experiment [9].

Regarding `COc1cc2c(cc1-c1c(C)noc1C)ncc1[nH]c(=O)n([C@H](C)c3ccccn3)c12`, the GI50 in [1] was 2500 nM; in [2], 528 nM; in experiment [3], 0.765 µM; in experiment [4], 1.05 µM; in experiment [5] it was 22.4 µM; in experiment [6], 0.677 µM. The GI50 was 10.9 µM in experiment [7], 144 nM in experiment [8] and 6.07 µM in experiment [10]. Besides, the TGI in experiment [1] was 17.8 µM; in experiment [2] it was over 100 µM; in [3], over 34.2 µM; in experiment [4] it was over 47.9 µM; in experiment [5] it was over 100 µM; in experiment [6], over 100 µM. The TGI was over 100 µM in [7], over 100 µM in experiment [8] and 77.6 µM in experiment [10].

With `Cc1cc(Cl)ccc1Nc1nc(C(F)(F)F)ccc1C(=O)N/N=C/c1ccc(N(C)C)cc1`, the GI50 was 1430 nM in experiment [1]; 1370 nM in [2]; 2.03 µM in experiment [3]; 0.563 µM in experiment [4]; 2.4 µM in experiment [5]; 5.87 µM in experiment [6]. In addition, the GI50 in experiment [7] was 2.21 µM; in experiment [8] it was 1440 nM; in experiment [9], 0.746 µM. The TGI is over 100 µM in experiment [1]; over 100 µM in experiment [2]; 9.11 µM in experiment [3]; over 100 µM in experiment [4]; over 100 µM in experiment [5]; over 100 µM in experiment [6]. The TGI in experiment [7], in [8] and in experiment [9] was over 100 µM each time.

With `c1cc(C2N3CCCN2CC3)ccn1` (stereo unspecified), the TGI in experiment [1], in experiment [2], in experiment [3], in experiment [4], in experiment [5] and in experiment [7] was over 100 µM in each case. The TGI in experiment [8], in [10] and in experiment [9] was over 100 µM each time.

Take `CCCCc1oc2ccccc2c1C(=O)c1cc(I)c(OCCN(CC)CC)c(I)c1`: the GI50 in [1] was 1690 nM; in [2], 2000 nM; in [3], 4.66 µM; in [4], 3.69 µM; in experiment [5], 2.46 µM; in experiment [7] it was 1.94 µM. Further, the GI50 in experiment [8] was 1930 nM; in [9], 2.86 µM. In addition, the TGI in [1] is 3.23 µM and 7.89 µM; in experiment [2] it was 5.18 µM; in experiment [4], 14.7 µM and 16.9 µM; in experiment [5], 7.27 µM and 10.9 µM; in [6], 10.5 µM; in experiment [7], 4.54 µM and 16.5 µM. Moreover, the TGI in [8] is 3.88 µM and 7.09 µM; in [9] it was 14.8 µM and 47.1 µM.

In the case of `CCOC(CN(C)C(=O)OCC(Cl)(Cl)Cl)OCC`, the TGI in [1], in [2], in experiment [3], in experiment [4], in experiment [5] and in experiment [6] was over 100 µM in each case. Also, the TGI in [7] is over 100 µM; in [8], 59.1 µM; in experiment [9], over 100 µM.
